Format in all cases: cell-based, human
For one test, the system named is HepG2. Kind of test: MTT cytotoxicity assay. The settings on record: Homo sapiens, HepG2; MTT, 48 h, mean ± SD. As to the method: HepG2 and Hep3B (human hepatoma cells), Bcap37 and MCF-7 (human breast cancer cells), TE-1 (human esophageal cancer cells), A549 (human lung carcinoma cells), U251 and U87 (human glioma cells), were cultured in Dulbecco’s modified Eagle’s medium (DMEM) supplemented with 10% fetal bovine serum (FBS) and 1% penicillin/streptomycin (10000 U/mL penicillin, 10000 μg/ml streptomycin). SH-SY5Y (human neuroblastoma cells), LO2 (human normal liver cell) were grown in RPMI 1640 containing 10% FBS and 100 µg/ml penicillin, 100 µg/ml streptomycin. HepG2, Hep3B, MCF-7, TE-1, A549, U87, U251 and SHSY5Y cells were obtained from the American Type Culture Collection (Manassas, VA, USA). Bcap37 and LO2 cells were purchased from the Cell Bank of Chinese Academy of Sciences (Shanghai, China). All cells were incubated in a humidified atmosphere containing 5% CO2 at 37 °C.
Cells seeded in 96-well plates with 5 × 10^3 cells/well were adhered overnight and incubated with vehicle control (DMSO) or diverse concentrations of compounds for 48 h. After treatment, 20 μL of MTT (5 mg/mL) was added to each well and incubated for another 4 h at 37 °C. Then, 150 μL of DMSO/well was appended after removed the supernatant to dissolve the formed purple formazan crystals and the color absorbance was measured at 490 nm using a microplate reader (Molecular Devices, Thermo, CA, USA). The inhibition rate (%) was calculated as (A490(control) − A490(drug groups))/(A490(control) − A490(blank)) × 100 and the value of IC50 (the concentration that caused 50% inhibition of cell viability) was determined using SPSS 20.0. This experiment was measured in triplicate, independently.

Test [1] relates to Hep3B cells. Kind of test: Clonogenic assay. The settings on record: two weeks, dose-dependent. The protocol:
(§1) The clonogenic assay was performed to appraise the effect of daphnegiravone D on cell proliferation. Hep3B (800 cells/well) or HepG2 (4,000 cells/well) cells were seeded in 6-well plates in 2 mL complete media overnight and attachment cells were incubated with various concentrations of daphnegiravone D for two weeks. Then, cells were washed twice with PBS carefully and fixed with 4.0% paraformaldehyde for 30 min, and stained with 0.5% crystal violet at room temperature for 30 min. Colonies containing exceeding 50 cells/colony were counted under microscope. All experiments were independently performed three times.

The test system of test [2] is HepG2 cells. Kind of test: Clonogenic assay. Conditions: HepG2, two weeks, dose-dependent. As to the method: as §1
Test [3] has as its system Hep3B cells. In words: Cell cycle analysis, PI staining, flow cytometry. The settings on record: different concentrations, 24 and 48 h. As to the method:
(§2) Flow cytometry was used to determine the cell cycle effects of daphnegiravone D on Hep3B and HepG2 cells. Cells were seeded (2 × 10^5 cells/well) into six-well plates with complete DMEM medium for 24 h and treated with various concentrations of daphnegiravone D for 24 and 48 h. Cells were harvested after treatment, washed with cold PBS, and fixed with 70% ethanol at 4 °C overnight. Then, resuspended cell pellets in staining buffer, blended in RNase A and PI staining for 30 min at 37 °C. Cell cycle phase was investigated using a FACSCalibur flow cytometer (BD Biosciences, New Jersey, USA). The results were analyzed with FlowJo software (v7.6.5, Tree Star, Inc.).

For test [4], the system named is HepG2 cells. In words: Cell cycle analysis, PI staining, flow cytometry. The settings on record: HepG2, different concentrations, 24 and 48 h. The protocol:
as §2

For test [5], the system named is Hep3B cells. In words: Annexin V-FITC/PI apoptosis detection. The settings on record: 0.5–2.0 μM, 48 h, dose-dependent. As to the method:
(§3) An annexin-V FITC apoptosis detection Kit was used to determine the apoptosis effect induced by daphnegiravone D according to the manufacturer’s instructions (BD Biosciences, CA, USA). Briefly, Hep3B and HepG2 cells were plated in 6-well plates (2 × 10^5/well) and incubated overnight. Cells were harvested and washed with PBS by centrifugation after treatment with different concentrations of daphnegiravone D for 48 h. Then, cells were resuspended in 500 μL binding buffer and staining with Annexin V-FITC (10 μL) and propidium iodide (5 μL) at room temperature in the dark for 10 min. Thereafter, cells were analyzed by flow cytometry within 1 h after staining. 10,000 cells were acquired for each sample and data were analyzed by Cell Quest Pro software (BD Biosciences, New Jersey, USA).

The subject of test [6] is HepG2 cells. In words: Annexin V-FITC/PI apoptosis detection. The settings on record: HepG2, 2.5–10.0 μM, 48 h, dose-dependent. As to the method: as §3

`COc1c(-c2ccc(O)c(CC=C(C)C)c2)oc2c(CC=C(C)C)c(O)cc(O)c2c1=O` [Compound 1, daphnegiravone D] gave an IC50 in the test on HepG2 of 9.89 ± 1.02 µM. Besides, the colonies entry in the test with Hep3B cells [1] and in the test on HepG2 cells [2] was “dramatically reduced” in each case. The cell cycle arrest result in the test with Hep3B cells [3] and with HepG2 cells [4] was “significantly arrested at G0/G1 phase” each time. The “AV+PI− and AV+PI+ cells (apoptosis)” value in the test on Hep3B cells [5] and with HepG2 cells [6] was “increased dramatically” each time.

Source of the values: publication PMC5515844, “A new Prenylated Flavonoid induces G0/G1 arrest and apoptosis through p38/JNK MAPK pathways in Human Hepatocellular Carcinoma cells” (Scientific Reports, 2017).
